Experimental data as given in ChEMBL document CHEMBL1201862, “PubChem BioAssay data set” (2004).
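Five compound concentrations were applied to cells in 96-well plates for 48 hours; endpoints were derived by simple linear interpolation of the resulting dose-response curve. Here, GI50 denotes the concentration required for 50% inhibition of growth.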 Calls of active or inactive are those of the source. Cut-off read from the data, not from the text of the source: active = GI50 up to about 1.1 µM and inactive = higher.

Experiments:
Assay in all cases: growth of human tumour cells (NCI), 48 h
SK-MEL-2 = tested on: SK-MEL-2
KM12 = tested on: KM12
UACC-62 = tested on: UACC-62
RXF 393 = tested on: RXF 393
786-0 = tested on: 786-0
LOX IMVI = tested on: LOX IMVI
OVCAR-5 = tested on: OVCAR-5
K562 = tested on: K562
BT-549 = tested on: BT-549
NCI-H460 = tested on: NCI-H460
SNB-19 = tested on: SNB-19
CCRF-CEM = tested on: CCRF-CEM
COLO 205 = tested on: COLO 205
MCF7 = tested on: MCF7
HOP-92 = tested on: HOP-92
SK-OV-3 = tested on: SK-OV-3
OVCAR-8 = tested on: OVCAR-8
TK-10 = tested on: TK-10
SF-268 = tested on: SF-268
SF-539 = tested on: SF-539

Measured: GI50

CSC1=C(C(=O)N(COCC[Si](C)(C)C)c2ccccc2Br)CCC(C(C)(C)C)C1 (stereo not given)
inactive: SK-MEL-2 14 µM | KM12 14.2 µM | UACC-62 10.9 µM | RXF 393 9.79 µM | 786-0 13.3 µM | LOX IMVI 15.7 µM | OVCAR-5 14.4 µM | K562 8.28 µM | BT-549 28.1 µM | NCI-H460 13.6 µM | SNB-19 18.5 µM | CCRF-CEM 22.7 µM | COLO 205 12.4 µM | MCF7 10.6 µM | HOP-92 12.9 µM | SK-OV-3 31.9 µM | OVCAR-8 17.8 µM | TK-10 23.5 µM

O=C(/C=c1\oc(=O)/c(=C/C(=O)c2ccc(Cl)cc2)oc1=O)c1ccc(Cl)cc1
inactive: SK-MEL-2 > 100 µM | KM12 > 100 µM | UACC-62 > 100 µM | RXF 393 60.7 µM | 786-0 > 100 µM | LOX IMVI 48.4 µM | SF-268 97.3 µM | OVCAR-5 > 100 µM | K562 > 100 µM | BT-549 10.4 µM | NCI-H460 > 100 µM | SNB-19 > 100 µM | CCRF-CEM 39.4 µM | SF-539 > 100 µM | COLO 205 > 100 µM | MCF7 > 100 µM | HOP-92 43.1 µM | SK-OV-3 > 100 µM | OVCAR-8 > 100 µM | TK-10 > 100 µM

C=C(C)C(=O)O[C@H]1[C@H]2[C@H](OC(=O)[C@H]2C)[C@H](O)[C@@H](C)[C@@H]2C=CC(=O)[C@]21C
inactive: SK-MEL-2 4.13 µM | KM12 2.51 µM | UACC-62 1.77 µM | RXF 393 1.22 µM | 786-0 2.49 µM | LOX IMVI 2.62 µM | SF-268 3.4 µM | OVCAR-5 8.61 µM | BT-549 3.83 µM | NCI-H460 1.82 µM | SNB-19 4.93 µM | CCRF-CEM 2.07 µM | SF-539 3.67 µM | COLO 205 3.27 µM | MCF7 4.19 µM | HOP-92 3.66 µM | SK-OV-3 5.9 µM | OVCAR-8 1.94 µM | TK-10 2.82 µM

CCOC(=O)c1c(C)n(Cc2ccc(Cl)cc2Cl)c2c1cc(O)c1[nH]c3c(c12)CCCC3
inactive: SK-MEL-2 24 µM | KM12 22.6 µM | UACC-62 22.5 µM | RXF 393 18.5 µM | 786-0 30.1 µM | LOX IMVI 33.5 µM | SF-268 20.8 µM | OVCAR-5 36.2 µM | BT-549 18.9 µM | NCI-H460 28.3 µM | SNB-19 23.6 µM | CCRF-CEM 16.8 µM | SF-539 24.1 µM | COLO 205 37.1 µM | MCF7 14.6 µM | HOP-92 20.2 µM | SK-OV-3 41.2 µM | OVCAR-8 11.4 µM | TK-10 24.5 µM

c1ccc(CCN(Cc2nc3ccccc3[nH]2)Cc2nc3ccccc3[nH]2)cc1
inactive: SK-MEL-2 18 µM | KM12 12.3 µM | UACC-62 13.4 µM | RXF 393 13.3 µM | 786-0 15.9 µM | LOX IMVI 10.1 µM | SF-268 13.6 µM | OVCAR-5 23.8 µM | K562 2.86 µM | BT-549 12.1 µM | NCI-H460 10 µM | SNB-19 16.2 µM | CCRF-CEM 3.39 µM | SF-539 20.7 µM | COLO 205 13.4 µM | MCF7 11.7 µM | HOP-92 12.5 µM | SK-OV-3 24.4 µM | OVCAR-8 6.18 µM | TK-10 16.3 µM

CCC(C)C(NC(=O)C(CCCCN)NC(=O)C(NC(=O)C(CCC(N)=O)NC(=O)C(CCCNC(=N)N)NC(C)=O)C(C)CC)C(=O)NC(Cc1c[nH]c2ccccc12)C(=O)NC(Cc1ccccc1)C(=O)NC(CCC(N)=O)C(=O)NC(CC(N)=O)C(=O)NC(CCCNC(=N)N)C(=O)NC(CCCNC(=N)N)C(=O)NC(CCSC)C(=O)NC(CCCCN)C(=O)NC(Cc1c[nH]c2ccccc12)C(=O)NC(CCCCN)C(=O)NC(CCCCN)C(N)=O (stereo not given)
inactive: SK-MEL-2 > 50 µM | KM12 14.5 µM | UACC-62 > 50 µM | RXF 393 > 50 µM | 786-0 12 µM | LOX IMVI > 50 µM | SF-268 45.1 µM | OVCAR-5 11.1 µM | K562 22.8 µM | BT-549 > 50 µM | NCI-H460 15.5 µM | SNB-19 > 50 µM | CCRF-CEM 22.4 µM | SF-539 19.7 µM | COLO 205 38.3 µM | MCF7 29.8 µM | HOP-92 > 50 µM | SK-OV-3 31.7 µM | OVCAR-8 49.2 µM | TK-10 > 50 µM

O=c1cc(N2CCOCC2)n2c(ccc3ccccc32)n1
inactive: SK-MEL-2 > 100 µM | KM12 > 100 µM | UACC-62 > 100 µM | RXF 393 > 100 µM | 786-0 > 100 µM | LOX IMVI > 100 µM | SF-268 > 100 µM | OVCAR-5 > 100 µM | K562 > 100 µM | BT-549 > 100 µM | SNB-19 > 100 µM | CCRF-CEM > 100 µM | SF-539 > 100 µM | COLO 205 > 100 µM | MCF7 > 100 µM | HOP-92 > 100 µM | SK-OV-3 > 100 µM | OVCAR-8 > 100 µM | TK-10 > 100 µM
